Series [1] can be described thus: in vitro. The series is classed as cell-based. The note with it: human, HepG2 or HepG2.117 cells, ATPlite, mean value. Summed up:
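Luminescent ATP quantitation served as the viability endpoint following a 3- or 4-day incubation with test compounds.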

Series [2] deals with HBV (HepG2.117 cell line, inducibly HBV producing). The series can be described thus: Anti-HBV activity: intracellular HBV DNA by real-time PCR in HepG2.117 cells after 3 days of treatment. The series is classed as cell-based, hepatitis B virus. Summed up: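 Inducible HBV-producing HepG2.117 line (Tet-off); 3-day exposure to serially diluted compound after induction; real-time PCR of intracellular viral DNA.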
(In qPCR the cycle at which signal appears reflects the starting amount.)

Where [3] appears, read: 3-days incubation (not marked with *).
[4] abbreviates: Hepatitis B virus, HepG2.117, 72 h, HepG2.117 cells, intracellular HBV DNA by real-time PCR, 3 days of treatment, mean value; read-out: EC50 (μM, mean value).
[5] abbreviates: 3-days incubation (unmarked values).
Setting [6] is: Hepatitis B virus, HepG2.117, 72 h, HepG2.117 cells, 3 days of treatment, intracellular HBV DNA by real-time PCR; mean value; read-out: EC50 (μM, mean value).

The source of these data is patent US20230091047A1 (priority 2019, published 2023).

What is called CC50 is the concentration at which the toxic effect on the cells reaches its halfway point. A word on the EC50: it is the midpoint of the concentration-response curve.

Molecules are shown by their SMILES. Read-outs that look alike come from different tables or passages of the source. Where only a bound is given, the exact number is not on record here.

In the case of `CNC(=O)c1ccc(-n2c(NC[C@@H](C)c3cccc(OC)c3)nc3c(c2=O)C[C@@H](C)N(C(=O)c2ccc(Cl)c(Cl)c2)C3)cc1` (single isomer, unassigned) [Compound C436b], the midpoint of cytotoxicity in series [1] (setting [3]), the CC50 at 3 days, lay at 22.3 µM. The EC50 in series [2] (setting [4]) worked out at 0.36 µM.

For the molecule `C[C@@H]1Cc2c(nc(NC3(c4ccncc4)CC3)n(-c3ccc(S(C)(=O)=O)cc3)c2=O)CN1C(=O)c1ccc(Cl)c(Cl)c1` [Compound C198, (6R)-7-(3,4-dichlorobenzoyl)-3-[4-(methanesulfonyl)phenyl]-6-methyl-2-{[1-(pyridin-4-yl)cyclopropyl]amino}-5,6,7,8-tetrahydropyrido[3,4-d]pyrimidin-4(3H)-one], the CC50 at 3 days in series [1] (setting [5]) is greater than 50 µM. Further, in series [2] (setting [6]), the EC50 is 3.25 µM.

Regarding `COCCNC(=O)c1ccc(-n2c(NC(C)C)nc3c(c2=O)C[C@@H](C)N(C(=O)c2ccc(Cl)c(Cl)c2)C3)cc1` [Compound C205, 4-[(6R)-7-(3,4-dichlorobenzoyl)-6-methyl-4-oxo-2-[(propan-2-yl)amino]-5,6,7,8-tetrahydropyrido[3,4-d]pyrimidin-3(4H)-yl]-N-(2-methoxyethyl)benzamide], the CC50 at 3 days in series [1] (setting [5]) was greater than 50 µM. Also, in series [2] (setting [6]), the EC50 is 0.13 µM.

In series [1] (setting [3]), `CNC(=O)c1ccc(-n2c(NC(C)c3ncn(C)n3)nc3c(c2=O)C[C@@H](C)N(C(=O)c2ccc(Cl)c(Cl)c2)C3)cc1` (stereo partly drawn) [Compound C484] showed a CC50 at 3 days greater than 50 µM. For the same molecule, the EC50 in series [2] (setting [4]) was 3.09 µM.

Regarding `CNC(=O)c1ccc(-n2c(NC(C)Cn3cnnc3)nc3c(c2=O)C[C@@H](C)N(C(=O)c2ccc(Cl)c(Cl)c2)C3)cc1` (stereo partly drawn) [Compound C481], the CC50 at 3 days in series [1] (setting [3]) was greater than 50 µM. Further, the EC50 in series [2] (setting [4]) is greater than 25 µM.

`CCCn1c(NCc2ccc(OC)cc2)nc2c(c1=O)CCN(C(=O)c1ccc(Cl)c(Cl)c1)C2` [Compound C71, 7-(3,4-dichlorobenzoyl)-2-{[(4-methoxyphenyl)methyl]amino}-3-propyl-5,6,7,8-tetrahydropyrido[3,4-d]pyrimidin-4(3H)-one] yielded a CC50 at 3 days in series [1] (setting [5]) greater than 50 µM. For the same molecule, the EC50 in series [2] (setting [6]) was 7.04 µM.

The molecule `CC(C)Nc1nc2c(c(=O)n1-c1ccc(-n3cccn3)cc1)CCN(C(=O)c1ccc(Cl)c(Cl)c1)C2` [Compound C144, 7-(3,4-dichlorobenzoyl)-2-[(propan-2-yl)amino]-3-[4-(1H-pyrazol-1-yl)phenyl]-5,6,7,8-tetrahydropyrido[3,4-d]pyrimidin-4(3H)-one] returned a CC50 at 3 days in series [1] (setting [5]) greater than 50 µM. Besides, the EC50 in series [2] (setting [6]) was determined as 0.6 µM.

Molecule `CNC(=O)c1ccc(-n2c(N[C@@H](C)C(C)(C)C)nc3c(c2=O)C[C@@H](C)N(C(=O)c2ccc(Cl)c(Cl)c2)C3)cc1` (single isomer, unassigned) [Compound C459b] had a CC50 at 3 days in series [1] (setting [3]) of 32.5 µM. In addition, the EC50 in series [2] (setting [4]) turned out to be 0.63 µM.

On to `CC(C)Nc1nc2c(c(=O)n1-c1ccc(N3CCCC3CO)cc1)C[C@@H](C)N(C(=O)c1ccc(Cl)c(Cl)c1)C2` (stereo partly drawn) [Compound C215, (6R)-7-(3,4-dichlorobenzoyl)-3-{4-[2-(hydroxymethyl)pyrrolidin-1-yl]phenyl}-6-methyl-2-[(propan-2-yl)amino]-5,6,7,8-tetrahydropyrido[3,4-d]pyrimidin-4(3H)-one], for which the midpoint of cytotoxicity in series [1] (setting [5]), the CC50 at 3 days, lay at 31.9 µM. Moreover, the EC50 in series [2] (setting [6]) was 0.21 µM.

Turning to `C=CCNc1nc2c(c(=O)n1CC=C)CCN(C(=O)c1ccc(Cl)c(Cl)c1)C2` [Compound C89, 7-(3,4-dichlorobenzoyl)-3-(prop-2-en-1-yl)-2-[(prop-2-en-1-yl)amino]-5,6,7,8-tetrahydropyrido[3,4-d]pyrimidin-4(3H)-one], in series [1] (setting [5]), the CC50 at 3 days was greater than 50 µM. In addition, the EC50 in series [2] (setting [6]) came out at 8.76 µM.

Turning to `CNC(=O)c1ccc(-n2c(N3CCCC3(C)C)nc3c(c2=O)C[C@@H](C)N(C(=O)c2ccc(Cl)c(Cl)c2)C3)cc1` [Compound C307, 4-[(6R)-7-(3,4-dichlorobenzoyl)-2-(2,2-dimethylpyrrolidin-1-yl)-6-methyl-4-oxo-5,6,7,8-tetrahydropyrido[3,4-d]pyrimidin-3(4H)-yl]-N-methylbenzamide], the CC50 at 3 days in series [1] (setting [5]) was 28 µM. For the same molecule, the EC50 in series [2] (setting [6]) came out at 0.09 µM.

Consider `COc1ccccc1-n1c(N2CCOCC2)nc2c(c1=O)CCN(C(=O)c1ccc(Cl)c(Cl)c1)C2` [Compound C40, 7-(3,4-dichlorobenzoyl)-3-(2-methoxyphenyl)-2-(morpholin-4-yl)-5,6,7,8-tetrahydropyrido[3,4-d]pyrimidin-4(3H)-one], for which, in series [1] (setting [5]), the CC50 at 3 days was greater than 50 µM. In series [2] (setting [6]), the EC50 is 11 µM.

In series [1] (setting [3]), `CNC(=O)c1ccc(-n2c(O[C@@H](C)C(C)C)nc3c(c2=O)C[C@@H](C)N(C(=O)c2ccc(Cl)c(Cl)c2)C3)cc1` [Compound C446] registered a CC50 at 3 days of 27.6 µM. For the same molecule, the EC50 in series [2] (setting [4]) is 0.03 µM.

On to `CNC(=O)c1ccc(-n2c(NC(C)Cc3c[nH]c4ccc(F)cc34)nc3c(c2=O)C[C@@H](C)N(C(=O)c2ccc(Cl)c(Cl)c2)C3)cc1` (stereo partly drawn) [Compound C548], for which, in series [1] (setting [3]), the CC50 at 3 days turned out to be 10.3 µM. Further, in series [2] (setting [4]), the EC50 is 0.58 µM.

In series [1] (setting [3]), `CNC(=O)c1cnc(-n2c(N[C@@H](C)c3ccc(F)cc3)nc3c(c2=O)C[C@@H](C)N(C(=O)c2ccc(Cl)c(Cl)c2)C3)cn1` [Compound C614] displayed a CC50 at 3 days greater than 50 µM. Besides, in series [2] (setting [4]), the EC50 turned out to be 0.09 µM.

As to `COc1ccc(CNc2nc3c(c(=O)n2-c2ccccc2Cl)CCN(C(=O)c2ccc(Cl)c(Cl)c2)C3)cc1` [Compound C15, 3-(2-chlorophenyl)-7-(3,4-dichlorobenzoyl)-2-{[(4-methoxyphenyl)methyl]amino}-5,6,7,8-tetrahydropyrido[3,4-d]pyrimidin-4(3H)-one], the CC50 at 3 days in series [1] (setting [5]) was greater than 50 µM. Moreover, the EC50 in series [2] (setting [6]) turned out to be 1.08 µM.

As for `CNC(=O)c1ccc(-n2c(NC(C)C)nc3c(c2=O)C[C@@H](C)N(C(=O)c2ccc(Cl)cc2F)C3)cc1` [Compound C520], the CC50 at 3 days in series [1] (setting [3]) was greater than 50 µM. Besides, the EC50 in series [2] (setting [4]) is 3.74 µM.

In series [1] (4-days incubation (values marked with *)), `COc1ccccc1-n1c(NCc2cccnc2)nc2c(c1=O)CCN(C(=O)c1ccc(Cl)c(Cl)c1)C2` [Compound C9, 7-(3,4-dichlorobenzoyl)-3-(2-methoxyphenyl)-2-{[(pyridin-3-yl)methyl]amino}-5,6,7,8-tetrahydropyrido[3,4-d]pyrimidin-4(3H)-one] had a CC50 at 4 days greater than 50 µM. Also, the EC50 in series [2] (setting [6]) is 11.6 µM.

The molecule `COc1ccc(CNc2nc3c(c(=O)n2-c2cccnc2C)CCN(C(=O)c2ccc(Cl)c(Cl)c2)C3)cc1` [Compound C96, 7-(3,4-dichlorobenzoyl)-2-{[(4-methoxyphenyl)methyl]amino}-3-(2-methylpyridin-3-yl)-5,6,7,8-tetrahydropyrido[3,4-d]pyrimidin-4(3H)-one] returned a CC50 at 3 days in series [1] (setting [5]) of 24.3 µM. Moreover, the EC50 in series [2] (setting [6]) turned out to be 0.65 µM.

`Cc1c[nH]c(-c2ccc(-n3c(NC(C)C)nc4c(c3=O)C[C@@H](C)N(C(=O)c3ccc(Cl)c(Cl)c3)C4)cc2)n1` [Compound C250, (6R)-7-(3,4-dichlorobenzoyl)-6-methyl-3-[4-(4-methyl-1H-imidazol-2-yl)phenyl]-2-[(propan-2-yl)amino]-5,6,7,8-tetrahydropyrido[3,4-d]pyrimidin-4(3H)-one]: the CC50 at 3 days in series [1] (setting [5]) was 8.9 µM. Also, the EC50 in series [2] (setting [6]) turned out to be 0.07 µM.

On to `CNC(=O)c1ccc(-n2c(N[C@H](C)c3ccc(F)c(OC)c3)nc3c(c2=O)C[C@@H](C)N(C(=O)c2ccc(Cl)c(Cl)c2)C3)cc1` (single isomer, unassigned) [Compound C435a], for which, in series [1] (setting [3]), half-maximal cytotoxicity (CC50 at 3 days) was put at 26.4 µM. Moreover, the EC50 in series [2] (setting [4]) stood at 0.1 µM.

In the case of `CNC(=O)c1ccc(-n2c(NC(C)C)nc3c(c2=O)C[C@@H](C)N(C(=O)c2cc(F)c(Cl)cc2Cl)C3)cc1` [Compound C472], the CC50 at 3 days in series [1] (setting [3]) is greater than 50 µM. Further, the EC50 in series [2] (setting [4]) was found to be 0.92 µM.

`CC(C)Nc1nc2c(c(=O)n1-c1ccc(S(C)(=O)=O)cc1)CCN(C(=O)c1ccc3ccoc3c1)C2` [Compound C139, 7-(1-benzofuran-6-carbonyl)-3-[4-(methanesulfonyl)phenyl]-2-[(propan-2-yl)amino]-5,6,7,8-tetrahydropyrido[3,4-d]pyrimidin-4(3H)-one] registered a CC50 at 3 days in series [1] (setting [5]) greater than 50 µM. In addition, the EC50 in series [2] (setting [6]) stood at 11.2 µM.

For the molecule `CC(C)Nc1nc2c(c(=O)n1-c1ccc(S(C)(=O)=O)cc1)C[C@H](c1ccc(F)cc1)N(C(=O)c1ccc(Cl)c(Cl)c1)C2` (single isomer, unassigned) [Compound C110B, (6*R)-7-(3,4-dichlorobenzoyl)-6-(4-fluorophenyl)-3-[4-(methanesulfonyl)phenyl]-2-[(propan-2-yl)amino]-5,6,7,8-tetrahydropyrido[3,4-d]pyrimidin-4(3H)-one], the CC50 at 3 days in series [1] (setting [5]) is greater than 50 µM. In addition, the EC50 in series [2] (setting [6]) was determined as 6.38 µM.

`CNC(=O)c1ccc(-n2c(N[C@H](C)C3CCC3)nc3c(c2=O)C[C@@H](C)N(C(=O)c2ccc(Cl)c(Cl)c2)C3)cc1` (single isomer, unassigned) [Compound C406a]: half-maximal cytotoxicity in series [1] (setting [3]) (CC50 at 3 days) was put at 31.3 µM. Besides, in series [2] (setting [4]), the EC50 came out at 0.18 µM.

In turn, `COc1ccc(C(C)Nc2nc3c(c(=O)n2-c2ccc(NC(C)=O)cc2)C[C@@H](C)N(C(=O)c2ccc(Cl)c(Cl)c2)C3)cc1` (stereo partly drawn) [Compound C410] had a CC50 at 3 days in series [1] (setting [3]) of 32.6 µM. Further, in series [2] (setting [4]), the EC50 came to 0.13 µM.

In the case of `CNC(=O)c1ccc(-n2c(NC(C)C)nc3c(c2=O)C[C@@H](C)N(C(=O)c2cn4ccccc4n2)C3)cc1` [Compound C497], the CC50 at 3 days in series [1] (setting [3]) was greater than 50 µM. Further, the EC50 in series [2] (setting [4]) was 11.8 µM.
